Reference: patent US5235045A, “Non-azo naphthalimide dyes” (priority 1992, dated 1993)
Like-named read-outs stand apart in the source and are kept apart here.

Columns and labels:
[1] = tested on: H9 cells; test: Location in living cells (fluorescence microscopy); type: cell-based, human; conditions: 5 and 25 μM; 1.5 hours
Procedure: Following the protocol of (1), above, H9 cells were stained with Compound lb, and the technique of fluorescent microscopy was used to determine visually the sites of localization of dye fluorescence in living cells. Specifically, H9 cells were counted with a hemocytometer and diluted to 5×10^5 /ml. Compound 1b was added to two aliquots to give dye concentrations of 5 and 25 μM, and the tubes were incubated for 1.5 hours. Cytospin slides of the cell suspensions were made and they were examined with the fluorescence microscope (Olympus AH-2) using B excitation plus a 460 nm interference excitation filter and a 495 nm emission filter. The cells were also counted with a hemocytometer and their viability determined (see below). […] The former may reflect the diffusional component of the dye incorporation, or may reflect binding in the ER membrane. The latter may indicate lysosomal localization of pinocytosed dye as occurs with Lucifer Yellow.

[2] = tested on: DAUDI cells; test: Photoinduced cell kill of DAUDI cells ([3H]-thymidine incorporation); type: cell-based; conditions: for CPM ([3H]-thymidine incorporation): 10% FCS medium
Procedure: An additional study using DAUDI cells and lower concentrations of Compound VII was performed according to the same protocol for studying the photochemical kill of H9 cells mediated by Compound VII. Viability was determined by the trypan blue assay above, as well as by [^3 H]-thymidine incorporation. The [^3 H]-thymidine incorporated protocol was as follows:
After irradiation, the cells were diluted to 3×10^5 cells/ml with medium containing twice the normal concentration of gentamycin. The cells were pipetted into a 96-well TC plat (100 μl/well) and incubated at 37° C. in a 5% CO2 incubator for 36 hours. At this time 1 μCi of [^3 ]-thymidine was added and allowed to incorporate for 6 hours. The cells were then harvested on glass fiber filters and placed into scintillation vials to which cocktail was added. The samples were counted on a Beckman model LS 6000IC scintillation counter.

[3] = tested on: Herpes simplex virus type 1; test: Effect of prior activation of Ed6Br with 420 nm light on HSV-1 (plaque assay); type: cell-based, MacIntyre strain; conditions: for log reduction at 25 µM / log reduction at 100 µM: Human alphaherpesvirus 1, 24 h, read-out: Log10 Reduction
[4] = tested on: H9 cells; test: Effect of Ed6Br and 420 nm light on H9 cells (Trypan Blue); type: cell-based, human; set-up: live cells / dead cells: unit not given here
Procedure: H9 cells (an immortal human T-cell lymphoma) were cultured in RPMI-1640 medium containing 10% additional fetal calf serum hold in air with a 5% CO2 atmosphere at 37.5° C. to a cell density in the range of 10^5 -10^7 per ml. Cells were, harvested by centrifugation and six 3ml. […] The remaining 3 samples wrapped in aluminum foil were handled identically but not irradiated. Immediately after irradiation, the cells in all samples were sedimented by centrifugation at 450 x g for 10 minutes and the cell pellets individually resuspended to the original 3 ml volume of RPMI-1640 containing an additional 10% fetal calf serum plus Gentamycin antibiotic. The samples were incubated for 24 hr. under normal culture conditions cited above. Cell viability was assessed by Trypan Blue dye exclusion counts using a standard hemocytometer after 24 hr incubation. […]

[5] = tested on: H9 cells; test: Effects on H9 cells of Ed6Br with prior activation by 420 nm light (Trypan Blue); type: cell-based; conditions: Homo sapiens, H9, 24 h, read-out: % Viable Cells
Procedure: H9 cells were cultivated in RPMI-1640 medium containing an additional 10% fetal calf serum at 37.5° C. in air having added 5% CO2. A 5.46 ml aliquot of cell suspension containing 9.16×10^5 H9 cells per ml was harvested, the cells sedimented at 450 x g for 10 minutes and resuspended in fresh growth medium. Two hundred microliter aliquots of the suspension were centrifuged as above and the resulting cell pellet served for resuspension in dye plus medium suspension for this study.
Six milliliters of suspension of Cremophor EL micelles containing Ed6Br in RPMI-1640 containing 10% additional fetal calf serum was made by diluting a 2.5 millimeter solution of the dye in Cremophor EL to give an average Ed6Br concentration of […], and the resulting suspension divided into 2 three milliliter aliquots. One aliquot was irradiated with 420 #5 nm light filtered from a xenon arc lamp at an irradiance of 20 mW/cm^2 to a total fluence of 200 J/cm^2. The companion aliquot was wrapped in aluminum foil and handled in identical fashion to the irradiated sample. These two aliquots served as stocks for deforming effects of both previously irradiated and un-irradiated Ed6Br at different concentrations from 0 up to 100 mM on H9 cells kept in the dark. Dulutions of the stock dye suspension into additional fresh growth medium were made within 1 hour of light irradiation to give dye-medium suspensions with average Ed6Br concentrations of […] for both previously irradiated and dark dye samples. The H9 cell pellets were resuspended in these dye-Cremophor EL suspensions and held at 37.5° C. in an air atmosphere containing an additional 5% CO2. After 24 hrs. culture of the number of total and viable […] was determined by Trypan Blue exclusion using a hemocytometer and microscope for cell counting.

[6] = tested on: Herpes simplex virus type 1; test: Effect of DiEd6Br and light on HSV-1 containing 15% fetal calf serum and human blood platelets (plaque assay); type: cell-based, MacIntyre strain; conditions: for log reduction at 0.156 µM / log reduction at 0.625 µM: Human alphaherpesvirus 1, Platelet, light or radiation study, read-out: Log10 Reduction
[7] = 5 μM, irradiated 10 J/cm^2, 420 nm
[8] = 25 μM, irradiated 10 J/cm^2, 420 nm

## CCCCCCNc1ccc2c3c(cccc13)C(=O)N(CCCCCC)C2=O [Compound 1b, 4-(hexyl)amino-N-hexyl-1,8-naphthalimide]
[1]
  localization in cell nucleus: rigorously excluded from the cell nucleus
  site of dye fluorescence: highly fluorescent with the cytoplasm being the primary site

## CCCCCCNc1c(Br)cc2c3c(cccc13)C(=O)N(CCCCCC)C2=O [Compound VII, 3-bromo-4-(hexyl)amino-N-hexyl-1,8-naphthalimide]
[2]; 1 μM, hν
  CPM ([3H]-thymidine incorporation): 1.2 ± 0.4 × 10^2 CPM
[2]; 1 μM, no hν
  CPM ([3H]-thymidine incorporation): 5.1 ± 0.3 × 10^4 CPM
[2]; 5 μM, hν
  CPM ([3H]-thymidine incorporation): 1.1 ± 0.3 × 10^2 CPM
[2]; 5 μM, no hν
  CPM ([3H]-thymidine incorporation): 4.8 ± 0.3 × 10^4 CPM
[2]; 10 μM, hν
  CPM ([3H]-thymidine incorporation): 1.0 ± 0.4 × 10^2 CPM
[2]; 10 μM, no hν
  CPM ([3H]-thymidine incorporation): 4.5 ± 0.2 × 10^4 CPM
[2]; concentrations as low as 1 μM, 10J/cm^2
  photochemical cell inactivation: highly efficient photochemical cell inactivator
[3]; 25 μM, prior activation +
  PFU/ml: 8.4 × 10^3 PFU/ml
  log reduction at 25 µM: 1.51
[3]; 25 μM, prior activation -
  PFU/ml: 4.5 × 10^4 PFU/ml
  log reduction at 25 µM: 0.78
[3]; 100 μM, prior activation +
  PFU/ml: 3.0 × 10^1 PFU/ml
  log reduction at 100 µM: 3.95
[3]; 100 μM, prior activation -
  PFU/ml: 9.0 × 10^3 PFU/ml
  log reduction at 100 µM: 1.48
[3]; as low as 100 mM, activated prior to addition to viral suspension
  kill of HSV-1: > 99.99%
[4]; 5 μM, dark
  Cells/ml: 7.70 × 10^5 Cells/ml
  dead cells: 12
  live cells: 77
[4]; [7]
  Cells/ml: 0.0 Cells/ml
  dead cells: 47
  live cells: 0
[4]; 25 μM, dark
  Cells/ml: 9.9 × 10^5 Cells/ml
  dead cells: 11
  live cells: 99
[4]; [8]
  Cells/ml: 0.0 Cells/ml
  dead cells: 41
  live cells: 0
[4]; 5 mM or greater (so in the source), activated by light, 1440 min
  H9 cells inactivated or killed: ~100%
[4]; Homo sapiens, H9, 24 h, 25 µM, dark, printed approximately 10% or less, read-out: cells inactivated in absence of light
  cytotoxicity at 25 µM: ≤ 10%
[4]; Homo sapiens, H9, light or radiation study, 24 h, 5 μM, irradiated 10 J/cm^2, 420 nm
  viability at 5 µM: 0%
[4]; Homo sapiens, H9, light or radiation study, 24 h, 25 μM, irradiated 10 J/cm^2, 420 nm
  viability at 25 µM: 0%
[5]; no previous light activation
  viability at 1 µM: 72.7%
  viability at 10 µM: 77.2%
  viability at 25 µM: 57.9%
  viability at 50 µM: 27.4%
  viability at 75 µM: 33.9%
[5]; previous light activation
  viability at 1 µM: 68.4%
  viability at 10 µM: 31.8%
  viability at 25 µM: 4.9%
  viability at 50 µM: 0%
  viability at 75 µM: 0%

## CCCCCCN1C(=O)c2cccc3c(NCCNC(=O)CCCCC(=O)NCCNc4c(Br)cc5c6c(cccc46)C(=O)N(CCCCCC)C5=O)c(Br)cc(c23)C1=O [Compound XLIV]
[6]; 0.156 μM, 5 J/cm^2
  PFU/ml: 7.4 × 10^7 PFU/ml
  log reduction at 0.156 µM: 0.01
[6]; 0.156 μM, 10 J/cm^2
  PFU/ml: 6.0 × 10^7 PFU/ml
  log reduction at 0.156 µM: 0.1
[6]; 0.156 μM, 20 J/cm^2
  PFU/ml: 1.5 × 10^7 PFU/ml
  log reduction at 0.156 µM: 0.7
[6]; 0.156 μM, 40 J/cm^2
  PFU/ml: 4.5 × 10^6 PFU/ml
  log reduction at 0.156 µM: 1.22
[6]; 0.156 μM, 60 J/cm^2
  PFU/ml: 1.5 × 10^6 PFU/ml
  log reduction at 0.156 µM: 1.7
[6]; 625 μM (so in the source), 5 J/cm^2
  PFU/ml: 5.0 × 10^5 PFU/ml
[6]; 625 μM (so in the source), 10 J/cm^2
  PFU/ml: 4.5 × 10^5 PFU/ml
[6]; 625 μM (so in the source), 20 J/cm^2
  PFU/ml: 2.0 × 10^4 PFU/ml
[6]; 625 μM (so in the source), 40 J/cm^2
  PFU/ml: 1.1 × 10^3 PFU/ml
[6]; 625 μM (so in the source), 60 J/cm^2
  PFU/ml: None detected
[6]; 5 J/cm^2
  log reduction at 0.625 µM: 2.18
[6]; 10 J/cm^2
  log reduction at 0.625 µM: 2.22
[6]; 20 J/cm^2
  log reduction at 0.625 µM: 3.58
[6]; 40 J/cm^2
  log reduction at 0.625 µM: 4.84
[6]; 60 J/cm^2
  log reduction at 0.625 µM: 7
[6]; as low as 0.625 mM, 60 J/cm^2, 15% serum proteins and platelets
  kill of HSV-1: > 99.86%
